US12662491B2 (Redona Therapeutics, Inc., priority 2020, dated 2026)
Where two headings read alike, the source gives them in different places.

Biological target: T1, Zcchc11 enzyme (Homo sapiens, UniProt Q5TAX3)
T1 construct: made in house; host or cells: HEK293 cells (Zcchc11); E. coli Rosetta II (LIN28A)
T1 sequence (Q5TAX3 212-1420): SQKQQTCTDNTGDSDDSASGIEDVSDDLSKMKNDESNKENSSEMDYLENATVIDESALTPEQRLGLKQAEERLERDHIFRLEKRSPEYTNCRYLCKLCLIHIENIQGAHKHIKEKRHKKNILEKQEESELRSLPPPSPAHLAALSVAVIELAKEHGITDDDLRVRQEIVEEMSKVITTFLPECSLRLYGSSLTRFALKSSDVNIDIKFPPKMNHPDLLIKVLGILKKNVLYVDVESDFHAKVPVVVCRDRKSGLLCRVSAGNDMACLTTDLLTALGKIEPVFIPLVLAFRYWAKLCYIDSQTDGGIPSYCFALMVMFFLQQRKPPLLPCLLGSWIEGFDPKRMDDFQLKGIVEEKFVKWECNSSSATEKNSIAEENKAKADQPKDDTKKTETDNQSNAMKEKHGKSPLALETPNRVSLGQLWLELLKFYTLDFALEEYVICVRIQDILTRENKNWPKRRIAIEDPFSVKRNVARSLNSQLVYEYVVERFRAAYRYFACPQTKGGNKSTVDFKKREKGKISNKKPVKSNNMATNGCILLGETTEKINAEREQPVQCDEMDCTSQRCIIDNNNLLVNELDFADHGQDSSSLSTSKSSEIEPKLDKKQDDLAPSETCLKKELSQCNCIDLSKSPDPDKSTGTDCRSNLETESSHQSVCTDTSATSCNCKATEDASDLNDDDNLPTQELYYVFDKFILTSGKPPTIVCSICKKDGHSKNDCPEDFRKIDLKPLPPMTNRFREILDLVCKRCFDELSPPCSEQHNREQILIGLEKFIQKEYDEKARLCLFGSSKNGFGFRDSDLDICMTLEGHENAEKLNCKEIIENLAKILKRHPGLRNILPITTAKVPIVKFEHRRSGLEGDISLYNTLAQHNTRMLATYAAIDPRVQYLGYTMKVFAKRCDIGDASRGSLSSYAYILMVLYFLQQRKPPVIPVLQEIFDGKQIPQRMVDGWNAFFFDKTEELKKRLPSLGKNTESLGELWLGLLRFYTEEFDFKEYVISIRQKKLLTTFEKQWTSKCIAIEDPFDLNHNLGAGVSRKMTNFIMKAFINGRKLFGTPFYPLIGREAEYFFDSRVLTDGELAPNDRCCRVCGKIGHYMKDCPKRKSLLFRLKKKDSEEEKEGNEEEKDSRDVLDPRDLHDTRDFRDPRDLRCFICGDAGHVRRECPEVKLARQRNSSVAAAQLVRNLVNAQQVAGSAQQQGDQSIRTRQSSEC
Assay: TUTase assay (Zcchc11 assay, Lin28a-dependent polyuridylation of pre-let-7)
Type: biochemical
Conditions: read-out: Potency Lin28a-dep Z11 IC50
In short: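 LIN28A (10 nM) in pH 7.3 HEPES/KCl/MgCl2/DTT buffer was mixed with serially diluted compound, then 0.2 nM truncated human Zcchc11 and 2 nM labeled pre-let-7 were added for 30 min at room temperature. UTP (5 uM) and quench probe (4 nM) then started the reaction. Linear early rates gave IC50 values.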

[1] = Lin28a-dependent Zcchc11 (Z11) TUTase assay
[2] = Lin28a-dependent Zcchc11 (Z11) TUTase activity
[3] = LIN28A 10 nM, Zcchc11 0.2 nM, 5′-fluorescein pre-let-7 miRNA 2 nM, UTP 5 uM, room temperature, 30 minutes pre-incubation

Structure (SMILES)	IC50 [1] [nM]	IC50 [2] [nM]	further results
O=C(O)c1cn(C2CC2)c2c(F)c(N3CCC[C@@H]3COc3ccccn3)c(F)cc2c1=O [Compound 79, (R)-1-cyclopropyl-6,8-difluoro-4-oxo-7-(2-((pyridin-2-yloxy)methyl)pyrrolidin-1-yl)-1,4-dihydro-quinoline-3-carboxylic acid]		1000 to 10000	
CN(C)CCn1cc(-n2cc(C(=O)O)c(=O)c3cc(C#N)c(N4CCC[C@@H]4COc4ncccc4Cl)cc32)cn1 [Compound 207]		≤ 1000	
Cc1cccnc1OC[C@H]1CCCN1c1cc2c(cc1C#N)c(=O)c(C(=O)O)cn2C1(C)CC1 [Example 35, 6-Cyano-1-(1-methylcyclopropyl)-7-[(2R)-2-{[(3-methylpyridin-2-yl)oxy]methyl}pyrrolidin-1-yl]-4-oxo-1,4-dihydroquinoline-3-carboxylic acid]			IC50 [3]: ≤ 1000 nM
COc1cccnc1OC[C@H]1CCCN1c1cc2c(cc1F)c(=O)c(C(=O)O)cn2-c1ccccc1 [Compound 99, (R)-6-fluoro-7-(2-(((3-methoxy-pyridin-2-yl)oxy)methyl)pyrrolidin-1-yl)-4-oxo-1-phenyl-1,4-dihydro-quinoline-3-carboxylic acid]		≤ 1000	
COc1ccc(Cl)c(-n2cc(C(=O)O)c(=O)c3cc(F)c(N4CCC[C@@H]4COc4ccccn4)cc32)c1 [Compound 157, (R)-1-(2-chloro-5-methoxy-phenyl)-6-fluoro-4-oxo-7-(2-((pyridin-2-yloxy)methyl)pyrrolidin-1-yl)-1,4-dihydro-quinoline-3-carboxylic acid]		1000 to 10000	
CN(C)C1CN(c2ccc(-n3cc(C(=O)O)c(=O)c4cc(Cl)c(N5CCC[C@@H]5COc5nc(O)ccc5Cl)cc43)cn2)C1 [Compound 331, 6-Chloro-7-[(2R)-2-[[(3-chloro-6-hydroxy-pyridin-2-yl)oxy]methyl]pyrrolidin-1-yl]-1-[6-[3-(dimethyl-amino)azetidin-1-yl]pyridin-3-yl]-4-oxoquinoline-3-carboxylic acid]		≤ 1000	
O=C(O)c1cn(-c2cnc(OCCO)cn2)c2cc(N3CCC[C@@H]3COc3ncccc3Cl)c(Cl)cc2c1=O [Compound 238, 6-chloro-7-[(2R)-2-[[(3-chloropyridin-2-yl)oxy]methyl]pyrrolidin-1-yl]-1-[5-(2-hydroxy-ethoxy)pyrazin-2-yl]-4-oxoquinoline-3-carboxylic acid]		≤ 1000	
CN(C)c1ccc(-n2cc(C(=O)O)c(=O)c3cc(Cl)c(N4CCC[C@@H]4COc4ncccc4OCCN)cc32)cn1 [Example 53, 7-[(2R)-2-([[3-(2-Aminoethoxy)pyridin-2-yl]oxy]methyl)pyrrolidin-1-yl]-6-chloro-1-[6-(dimethylamino)pyridin-3-yl]-4-oxoquinoline-3-carboxylic acid]			IC50 [3]: ≤ 1000 nM
CN(C)C1CN(c2ccc(-n3cc(C(=O)O)c(=O)c4cc(C#N)c(N5C(=O)CC[C@@H]5COc5ncccc5Cl)cc43)cn2)C1 [Compound 220, 7-[(2R)-2-[[(3-chloropyridin-2-yl)oxy]methyl]-5-oxopyrrolidin-1-yl]-6-cyano-1-[6-[3-(dimethyl-amino)azetidin-1-yl]pyridin-3-yl]-4-oxoquinoline-3-carboxylic acid]		10000 to 50000	
COCCN(C)C1CN(c2ccc(-n3cc(C(=O)O)c(=O)c4cc(F)c(N5CC[C@H](C)[C@@H]5COc5ncccc5Cl)cc43)cn2)C1 (racemic) [Compound 262, rac-7-((2R,3S)-2-(((3-chloropyridin-2-yl)oxy)methyl)-3-methyl-pyrrolidin-1-yl)-6-fluoro-1-(6-(3-((2-methoxy-ethyl)(methyl)amino)azetidin-1-yl)pyridin-3-yl)-4-oxo-1,4-dihydro-quinoline-3-carboxylic acid]		≤ 1000	
CC1CCN(c2cc3c(cc2Cl)c(=O)c(C(=O)O)cn3-c2ccnc(N)c2)[C@H]1COc1nc(N(C)C)ccc1Cl (some centres unmarked) [Compound 333]		≤ 1000	

Continued, in another order:

IC50 [1] [nM]	IC50 [2] [nM]	Structure (SMILES)	further results
1000 to 10000		COCCN1CC2(CC(n3cc(C(=O)O)c(=O)c4cc(Cl)c(N5CCC[C@@H]5COc5ncccc5Cl)cc43)C2)C1 [Example 482, (R)-6-chloro-7-(2-(((3-chloropyridin-2-yl)oxy)methyl)pyrrolidin-1-yl)-1-(2-(2-methoxy-ethyl)-2-azaspiro[3.3]heptan-6-yl)-4-oxo-1,4-dihydroquinoline-3-carboxylic acid]	
≤ 1000		COCCNC1CN(c2ccc(-n3cc(C(=O)O)c(=O)c4cc(Cl)c(N5CCC[C@@H]5COc5ncccc5Cl)cc43)cn2)C1 [Example 494, (R)-6-chloro-7-(2-(((3-chloropyridin-2-yl)oxy)methyl)pyrrolidin-1-yl)-1-(6-(3-((2-methoxyethyl)amino)azetidin-1-yl)pyridin-3-yl)-4-oxo-1,4-dihydroquinoline-3-carboxylic acid]	
1000 to 10000		O=C(O)c1cn(C2CCNC2)c2cc(N3CCC[C@@H]3COc3ncccc3Cl)c(Cl)cc2c1=O (stereo partly drawn) [Example 367, 6-chloro-7-[(2R)-2-{[(3-chloro-pyridin-2-yl)oxy)methyl}pyrrolidin-1-yl]-4-oxo-1-(pyrrolidin-3-yl)-1,4-dihydroquinoline-3-carboxylic acid]	
≤ 1000		N#Cc1cc2c(=O)c(C(=O)O)cn(-c3cnn(CCN4CCC4)c3)c2cc1N1CCC[C@@H]1COc1ncccc1Cl [Example 571, (R)-1-(1-(2-(azetidin-1-yl)ethyl)-1H-pyrazol-4-yl)-7-(2-(((3-chloropyridin-2-yl)oxy)methyl)pyrrolidin-1-yl)-6-cyano-4-oxo-1,4-dihydroquinoline-3-carboxylic acid]	
≤ 1000		CS(=O)(=O)Nc1ccc(-n2cc(C(=O)O)c(=O)c3cc(Cl)c(N4CCC[C@@H]4COc4ncccc4Cl)cc32)cc1 [Example 427, (R)-6-chloro-7-(2-(((3-chloropyridin-2-yl)oxy)methyl)pyrrolidin-1-yl)-1-(4-(methyl-sulfonamido)phenyl)-4-oxo-1,4-dihydroquinoline-3-carboxylic acid]	
≤ 1000		CN(C)C1CN(c2ccc(-n3cc(C(=O)O)c(=O)c4cc(Cl)c(N5C[C@@H](O)C[C@@H]5COc5ncccc5Cl)cc43)cn2)C1 [Example 598, 6-chloro-7-((2R,4S)-2-(((3-chloropyridin-2-yl)oxy)methyl)-4-hydroxypyrrolidin-1-yl)-1-(6-(3-(dimethylamino)azetidin-1-yl)pyridin-3-yl)-4-oxo-1,4-dihydroquinoline-3-carboxylic acid]	
≤ 1000		CN(C)C1CN(c2ccc(-n3cc(C(=O)O)c(=O)c4cc(Cl)c(N5CCC[C@@]5(C)COc5ncccc5Cl)cc43)cn2)C1 [Example 609, (S)-6-chloro-7-(2-(((3-chloropyridin-2-yl)oxy)methyl)-2-methylpyrrolidin-1-yl)-1-(6-(3-(dimethylamino)azetidin-1-yl)pyridin-3-yl)-4-oxo-1,4-dihydroquinoline-3-carboxylic acid]	
≤ 1000		CN1CCn2nc(-n3cc(C(=O)O)c(=O)c4cc(C#N)c(N5CCC[C@@H]5COc5ncccc5Cl)cc43)cc2C1 [Example 561, (R)-7-(2-(((3-chloropyridin-2-yl)oxy)methyl)pyrrolidin-1-yl)-6-cyano-1-(5-methyl-4,5,6,7-tetrahydropyrazolo [1,5-a]pyrazin-2-yl)-4-oxo-1,4-dihydroquinoline-3-carboxylic acid]	
≤ 1000		Nc1cnc(-n2cc(C(=O)O)c(=O)c3cc(Cl)c(N4CCC[C@@H]4COc4ncccc4Cl)cc32)cn1 [Example 483, 1-(5-aminopyrazin-2-yl)-6-chloro-7-[(2R)-2-{[(3-chloropyridin-2-yl)oxy]methyl}pyrrolidin-1-yl]-4-oxo-1,4-dihydroquinoline-3-carboxylic acid]	
